In patent publication US20260015311A1, “AMINO LIPID COMPOUND, PREPARATION METHOD THEREFOR, AND USE THEREOF” (SHENZHEN SHENXIN BIOTECHNOLOGY CO., LTD., priority 2022, published 2026):
Where two headings read alike, the source gives them in different places.

Assays:
[1] = Toxicokinetic, plasma concentration of compound I-6-II after empty liposome preparation; format: in vivo, cynomolgus monkeys; conditions: for half-life / AUC(0-t) / Cmax / Tmax: cynomolgus monkey, plasma, intramuscular
Experimental: 1.9078 g of Compound I-6-II, 0.3985 g of DSPC, 0.7575 g of CHO-HP and 0.1972 g of PEG-DMG (average molecular weight of 2000) were weighed in the molar ratio of 49.5:10:39:1.5, dissolved in absolute ethanol and diluted to 237.5 mL to obtain an alcohol phase. The alcohol phase was mixed and encapsulated by using a microfluidic device (MPE-L^2), with an acetic acid-sodium acetate buffer (0.2 mol/L, pH=5) as the aqueous phase, and a volume ratio of aqueous phase:alcohol phase of 3:1. […]
The animal experiment was set up with a total of 5 groups (5 animals/gender/group), and the groups and the dosages thereof were as follows: negative control group (0 μg compound I-6-II/animal), empty liposome low-dosage group (300 μg compound I-6-II/animal) and empty liposome high-dosage group (1200 μg compound I-6-II/animal). The animals in each group were administered intramuscularly once every 2 weeks for a total of 3 times, i.e., administered on D1, D15 and D29.
Blood samples were collected from animals before and 4 h after the first (D1) and the last (D29) administration in the negative control group; and Blood samples were collected from animals before and 15 min, 1 h, 2 h, 4 h, 8 h, 24 h, 32 h and 48 h after the first (D1) and the last (D29) administration in the empty liposome group. The plasma concentration of compound I-6-II in cynomolgus monkeys was detected to investigate the exposure of compound I-6-II in cynomolgus monkeys after administration in each group of animals.
The main TK parameters of compound I-6-II in animals of the empty liposome low- and high-dosage groups after the first administration (D1) and the last administration (D29) are as shown in Table 7 below.

[2] = system: SD rats; conditions: Covid-19 S protein mRNA-LNP, 100 μg mRNA/animal, intramuscular once a week for 3 weeks, versus ALC-0315 and SM-102, FIG. 9
[3] = system: liver; assay: Targeting assay, fluorescence in liver after intramuscular injection; format: in vivo, mice; conditions: 15 μg mRNA per animal, 6 h after injection, dissected liver
Experimental: The lipids were mixed with DSPC, CHO-HP, M-DMG2000 (i.e. PEG2000-DMG) in a molar ratio of 50:10:38.5:1.5 and dissolved in absolute ethanol. mRNA was dissolved in a sodium acetate solution (0.2M, pH=5.0). The samples of various prescriptions were prepared at a water phase:alcohol phase=9 ml/min: 3 ml/min by using a microfluidic equipment (MPE-L2) and a chip (SN.000035). The two phases were mixed by injecting them into the microfluidic chip according to the interface requirements, and then the drug solution was loaded into a 100KD dialysis bags, immersed in a beaker containing 1 L dialysis solution and wrapped with aluminum foil, and dialyzed at 100 rpm for 1 h at room temperature, and then the dialysis solution was replaced and the dialysis continued for 1 h.
Formulation of dialysis solution: 1×PBS+8% sucrose solution: 2 packets of 1×PBS powder were taken into a beaker, dissolved with 2 L DEPC water, added with 160 g of sucrose additionally, and mixed to obtain the 1×PBS+8% sucrose solution.
The mass ratio of mRNA:Lipids in the obtained lipid nanoparticles were about 1:10.
Fluorescent protein-encoding mRNA-LNP preparations containing Compound (I-6-II), MC3 or SM102, respectively were prepared by using the formulation method of mRNA lipid nanoparticle (LNP) preparations as described above, selecting a fluorescent protein-encoding mRNA as the mRNA and the compound (I-6-II), MC3 or SM102, respectively as the lipid.
Each preparation to be tested was administered to mice by intramuscular injection, with each animal receiving 15 μg mRNA preparation sample. 6 h after sample injection, the mice were anesthetized by isoflurane inhalation, and injected intraperitoneally with 200 μL of D-Luciferin (concentration 10 mg/ml) luciferase development substrate. […] After development of living imaging of the intramuscularly injected animals, they were immediately dissected, followed by observation of the fluorescence in the liver immediately after the dissection.

[4] = female, im, 300 ug, empty liposome low-dosage group (300 μg compound I-6-II/animal), D 1, female, Mean
[5] = female, im, 300 ug, empty liposome low-dosage group (300 μg compound I-6-II/animal), D 29, female, Mean
[6] = female, im, 1200 ug, empty liposome high-dosage group (1200 μg compound I-6-II/animal), D 1, female, Mean
[7] = female, im, 1200 ug, empty liposome high-dosage group (1200 μg compound I-6-II/animal), D 29, female, Mean
[8] = male, im, 300 ug, empty liposome low-dosage group (300 μg compound I-6-II/animal), D 1, male, Mean
[9] = male, im, 300 ug, empty liposome low-dosage group (300 μg compound I-6-II/animal), D 29, male, Mean
[10] = male, im, 1200 ug, empty liposome high-dosage group (1200 μg compound I-6-II/animal), D 1, male, Mean
[11] = male, im, 1200 ug, empty liposome high-dosage group (1200 μg compound I-6-II/animal), D 29, male, Mean

CCCCCCCCCOC(=O)CCCCCCCN(CCCCCCCC(=O)OC(CCCCCCCC)CCCCCCCC)[C@@H]1CCC[C@H](O)C1 [Compound (I-6-II)]
accumulation ([1]; after 4 weeks of continuous administration (3 times in total), cynomolgus monkeys): did not accumulate | half-life ([1]; both sexes, cynomolgus monkeys, over the empty liposome groups, read-out: plasma half-life): 4.68 to 6.45 h | AUC(0-t) [1, 4]: 838 ng·h/mL | Cmax [1, 4]: 79.1 ng/mL | Tmax [1, 4]: 3.2 h | half-life ([1]; female, im, 300 ug, empty liposome low-dosage group (300 μg compound I-6-II/animal), D 1, female, Mean, read-out: t1/2 (converted)): 5.28 h | AUC(0-t) [1, 5]: 783 ng·h/mL | Cmax [1, 5]: 59.3 ng/mL | Tmax [1, 5]: 6 h | half-life ([1]; female, im, 300 ug, empty liposome low-dosage group (300 μg compound I-6-II/animal), D 29, female, Mean, read-out: t1/2 (converted)): 3.58 h | AUC(0-t) [1, 6]: 4570 ng·h/mL | Cmax [1, 6]: 334 ng/mL | Tmax [1, 6]: 5 h | half-life ([1]; female, im, 1200 ug, empty liposome high-dosage group (1200 μg compound I-6-II/animal), D 1, female, Mean, read-out: t1/2 (converted)): 5.07 h | AUC(0-t) [1, 7]: 3090 ng·h/mL | Cmax [1, 7]: 194 ng/mL | Tmax [1, 7]: 8 h | half-life ([1]; female, im, 1200 ug, empty liposome high-dosage group (1200 μg compound I-6-II/animal), D 29, female, Mean, read-out: t1/2 (converted)): 5.29 h | AUC(0-t) [1, 8]: 652 ng·h/mL | Cmax [1, 8]: 50.6 ng/mL | Tmax [1, 8]: 4.8 h | half-life ([1]; male, im, 300 ug, empty liposome low-dosage group (300 μg compound I-6-II/animal), D 1, male, Mean, read-out: t1/2 (converted)): 5.1 h | AUC(0-t) [1, 9]: 623 ng·h/mL | Cmax [1, 9]: 42.4 ng/mL | Tmax [1, 9]: 7.2 h | half-life ([1]; male, im, 300 ug, empty liposome low-dosage group (300 μg compound I-6-II/animal), D 29, male, Mean, read-out: t1/2 (converted)): 5.59 h | AUC(0-t) [1, 10]: 2240 ng·h/mL | Cmax [1, 10]: 198 ng/mL | Tmax [1, 10]: 3.2 h | half-life ([1]; male, im, 1200 ug, empty liposome high-dosage group (1200 μg compound I-6-II/animal), D 1, male, Mean, read-out: t1/2 (converted)): 6.07 h | AUC(0-t) [1, 11]: 2280 ng·h/mL | Cmax [1, 11]: 146 ng/mL | Tmax [1, 11]: 8 h | half-life ([1]; male, im, 1200 ug, empty liposome high-dosage group (1200 μg compound I-6-II/animal), D 29, male, Mean, read-out: t1/2 (converted)): 6.45 h | moderate claudication [2]: significantly reduced or decreased | severe swelling at the injection site [2]: significantly reduced or decreased | fluorescence intensity in liver [3]: 2.49E+05
